Experimental data: patent US6706663B2, “Herbicidal 3-heterocyclic substituted benzisothiazole and benzisoxazole compounds” (Wyeth, priority 2000, dated 2004)

Tests used:
[1] = tested on: ABUTH (Abutilon theophrasti); assay: Postemergence herbicidal evaluation; format: in vivo, Medic.; details: postemergence
Procedure, shortened: (§1)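 Seedlings grown for about two weeks were sprayed postemergence and then kept under standard greenhouse care. Injury was rated visually 4–5 weeks after treatment on a 0–9 scale against untreated controls, and ratings from repeat tests were averaged.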

ZEAMX (Corn, Field) [2] = assay: Postemergence herbicidal evaluation; format: in vivo, Zea mays, L.; details: postemergence
Procedure, shortened: as §1

[3] = tested on: ECHORC (Echinochloa oryzoides); assay: Flooded paddy, preemergence weed control; format: in vivo, Echinochloa oryzoides (Ard.) Fritsch.; details: rated 3-4 weeks after treatment, 0-9 rating scale
Procedure, shortened: (§2)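 Plants were established from seed or propagating organs in flooded silt loam, with the water surface held 1.5 to 3 cm above the soil for the entire experiment. Injury was assessed visually against a control and given a 0-9 score.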

[4] = tested on: CASOB (Cassia obtusifolia); assay: Preemergence herbicidal evaluation; format: in vivo, L.; details: rated 4-5 weeks after treatment
Procedure, shortened: (§3)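 Seeds mixed with potting soil were planted atop about one inch of soil, then sprayed with test compound in aqueous acetone. Cups were kept in the greenhouse and rated visually 4–5 weeks after treatment on a 0–9 scale against untreated control.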

[5] = tested on: CHEAL (Chenopodium album); assay: Preemergence herbicidal evaluation; format: in vivo, L.; details: rated 4-5 weeks after treatment
Procedure, shortened: as §3

[6] = tested on: AMBEL (Ambrosia artemisifolia); assay: Preemergence herbicidal evaluation; format: in vivo, L.; details: rated 4-5 weeks after treatment
Procedure, shortened: as §3

[7] = tested on: ECHCG (Echinochloa crus-galli); assay: Postemergence herbicidal evaluation; format: in vivo, (L.) Beau; details: postemergence
Procedure, shortened: as §1

[8] = tested on: SAGPY (Sagittaria pygmaea); assay: Flooded paddy, preemergence weed control; format: in vivo, L.; details: rated 3-4 weeks after treatment, 0-9 rating scale
Procedure, shortened: as §2

[9] = tested on: TRZAWR (Wheat, Winter, cv Riband); assay: Preemergence herbicidal evaluation; format: in vivo, Triticum aestivum; details: rated 4-5 weeks after treatment
Procedure, shortened: as §3

CYPIR (Cyperus iria) = assay: Flooded paddy, preemergence weed control; format: in vivo; details: rated 3-4 weeks after treatment, 0-9 rating scale
Procedure, shortened: as §2

[10] = tested on: GLXMAW (Soybean, Williams); assay: Preemergence herbicidal evaluation; format: in vivo, Glycine max, (L.) Merr. cv Williams; details: rated 4-5 weeks after treatment
ZEAMX (Corn, Field) [11] = assay: Preemergence herbicidal evaluation; format: in vivo, Zea mays, L.; details: rated 4-5 weeks after treatment
[12] = tested on: CASOB (Cassia obtusifolia); assay: Postemergence herbicidal evaluation; format: in vivo, L.; details: postemergence
Procedure, shortened: as §1

[13] = tested on: CHEAL (Chenopodium album); assay: Postemergence herbicidal evaluation; format: in vivo, L.; details: postemergence
Procedure, shortened: as §1

[14] = tested on: AMBEL (Ambrosia artemisifolia); assay: Postemergence herbicidal evaluation; format: in vivo, L.; details: postemergence
Procedure, shortened: as §1

GALAP (Galium aparine) [15] = assay: Preemergence herbicidal evaluation; format: in vivo; details: rated 4-5 weeks after treatment
Procedure, shortened: as §3

GALAP (Galium aparine) [16] = assay: Postemergence herbicidal evaluation; format: in vivo; details: postemergence
Procedure, shortened: as §1

[17] = tested on: IPOHE (Ipomoea hederacea); assay: Postemergence herbicidal evaluation; format: in vivo, (L.) Jacq.; details: postemergence
Procedure, shortened: as §1

[18] = tested on: IPOHE (Ipomoea hederacea); assay: Preemergence herbicidal evaluation; format: in vivo, (L.) Jacq.; details: rated 4-5 weeks after treatment
[19] = tested on: GLXMAW (Soybean, Williams); assay: Postemergence herbicidal evaluation; format: in vivo, Glycine max, (L.) Merr. cv Williams; details: postemergence
Procedure, shortened: as §1

ORYSAT (Rice, Tebonnet) = assay: Preemergence herbicidal evaluation; format: in vivo, Oryza sativa, (L.) Tebonnet; details: rated 4-5 weeks after treatment
[20] = preemergence, rate 0.0620 kg/ha
[21] = preemergence, rate 0.1250 kg/ha
[22] = preemergence, rate 0.2500 kg/ha

Cn1c(C(F)(F)F)cc(=O)n(-c2ccc3snc(-c4sccc4CO)c3c2)c1=O [Compound 85, 3-[3-[3-(hydroxymethyl)-2-thienyl]-1,2-benzisothiazol-5-yl]-1-methyl-6-(trifluoromethyl)uracil]
ABUTH herbicidal rating ([1]; rate 0.0320 kg/ha): 9.0
ABUTH herbicidal rating ([1]; rate 0.0620 kg/ha): 9.0
ZEAMX herbicidal rating (ZEAMX (Corn, Field) [2]; rate 0.0320 kg/ha): 4.5
ZEAMX herbicidal rating (ZEAMX (Corn, Field) [2]; rate 0.0620 kg/ha): 5.0
ECHORC herbicidal rating ([3]; rate 0.0080 kg/ha): 0.0
ECHORC herbicidal rating ([3]; rate 0.0320 kg/ha): 5.0
herbicidal rating, ECHORC ([3]; rate 0.1250 kg/ha): 8.0
Preemergence herbicidal rating CASOB [4, 20]: 0.0
Preemergence herbicidal rating CASOB [4, 21]: 3.0
Preemergence herbicidal rating CASOB [4, 22]: 5.0
Preemergence herbicidal rating CHEAL [5, 20]: 9.0
Preemergence herbicidal rating CHEAL [5, 21]: 9.0
Preemergence herbicidal rating CHEAL [5, 22]: 9.0
Preemergence herbicidal rating AMBEL [6, 20]: 8.0
Preemergence herbicidal rating AMBEL [6, 21]: 9.0
Preemergence herbicidal rating AMBEL [6, 22]: 9.0
ECHCG herbicidal rating ([7]; rate 0.0320 kg/ha): 0.0
ECHCG herbicidal rating ([7]; rate 0.0620 kg/ha): 2.0
SAGPY herbicidal rating ([8]; rate 0.0080 kg/ha): 0.0
SAGPY herbicidal rating ([8]; rate 0.0320 kg/ha): 1.5
herbicidal rating, SAGPY ([8]; rate 0.1250 kg/ha): 7.0
Preemergence herbicidal rating TRZAWR [9, 20]: 0.0
Preemergence herbicidal rating TRZAWR [9, 21]: 0.0
Preemergence herbicidal rating TRZAWR [9, 22]: 3.0
CYPIR herbicidal rating (CYPIR (Cyperus iria); rate 0.0080 kg/ha): 0.0
CYPIR herbicidal rating (CYPIR (Cyperus iria); rate 0.0320 kg/ha): 0.0
herbicidal rating, CYPIR (CYPIR (Cyperus iria); rate 0.1250 kg/ha): 6.0
Preemergence herbicidal rating GLXMAW [10, 20]: 0.0
Preemergence herbicidal rating GLXMAW [10, 21]: 3.0
Preemergence herbicidal rating GLXMAW [10, 22]: 9.0
Preemergence herbicidal rating ZEAMX (ZEAMX (Corn, Field) [11]; [20]): 0.0
Preemergence herbicidal rating ZEAMX (ZEAMX (Corn, Field) [11]; [21]): 3.0
Preemergence herbicidal rating ZEAMX (ZEAMX (Corn, Field) [11]; [22]): 3.0
CASOB herbicidal rating ([12]; rate 0.0320 kg/ha): 4.0
CASOB herbicidal rating ([12]; rate 0.0620 kg/ha): 4.0
CHEAL herbicidal rating ([13]; rate 0.0320 kg/ha): 9.0
CHEAL herbicidal rating ([13]; rate 0.0620 kg/ha): 9.0
AMBEL herbicidal rating ([14]; rate 0.0320 kg/ha): 5.0
AMBEL herbicidal rating ([14]; rate 0.0620 kg/ha): 9.0
Preemergence herbicidal rating GALAP (GALAP (Galium aparine) [15]; [20]): 4.0
Preemergence herbicidal rating GALAP (GALAP (Galium aparine) [15]; [21]): 6.0
Preemergence herbicidal rating GALAP (GALAP (Galium aparine) [15]; [22]): 9.0
GALAP herbicidal rating (GALAP (Galium aparine) [16]; rate 0.0320 kg/ha): 4.0
GALAP herbicidal rating (GALAP (Galium aparine) [16]; rate 0.0620 kg/ha): 6.0
IPOHE herbicidal rating ([17]; rate 0.0320 kg/ha): 9.0
IPOHE herbicidal rating ([17]; rate 0.0620 kg/ha): 9.0
Preemergence herbicidal rating IPOHE [18, 20]: 0.0
Preemergence herbicidal rating IPOHE [18, 21]: 4.0
Preemergence herbicidal rating IPOHE [18, 22]: 7.0
GLXMAW herbicidal rating ([19]; rate 0.0320 kg/ha): 3.5
GLXMAW herbicidal rating ([19]; rate 0.0620 kg/ha): 4.0
Preemergence herbicidal rating ORYSAT (ORYSAT (Rice, Tebonnet); [20]): 2.0
Preemergence herbicidal rating ORYSAT (ORYSAT (Rice, Tebonnet); [21]): 6.0
Preemergence herbicidal rating ORYSAT (ORYSAT (Rice, Tebonnet); [22]): 7.0

Cn1c(C(F)(F)F)cc(=O)n(-c2ccc3snc(C4OCC(c5ccccc5)O4)c3c2)c1=O (stereo not drawn) [Compound 78, 1-methyl-3-[3-(4-phenyl-1,3-dioxolan-2-yl)-1,2-benzisothiazol-5-yl]-6-(trifluoromethyl)uracil]
ABUTH herbicidal rating ([1]; rate 0.0320 kg/ha): 9.0
ABUTH herbicidal rating ([1]; rate 0.0620 kg/ha): 9.0
ZEAMX herbicidal rating (ZEAMX (Corn, Field) [2]; rate 0.0320 kg/ha): 3.5
ZEAMX herbicidal rating (ZEAMX (Corn, Field) [2]; rate 0.0620 kg/ha): 3.5
herbicidal rating, ECHORC ([3]; rate 0.0080 kg/ha): 8.0
herbicidal rating, ECHORC ([3]; rate 0.0320 kg/ha): 9.0
herbicidal rating, ECHORC ([3]; rate 0.1250 kg/ha): 9.0
Preemergence herbicidal rating CASOB ([4]; Rate 0.0620 kg/ha): 2.0
Preemergence herbicidal rating CASOB ([4]; Rate 0.1250 kg/ha): 4.0
Preemergence herbicidal rating CASOB ([4]; Rate 0.2500 kg/ha): 6.0
Preemergence herbicidal rating CHEAL ([5]; Rate 0.0620 kg/ha): 9.0
Preemergence herbicidal rating CHEAL ([5]; Rate 0.1250 kg/ha): 9.0
Preemergence herbicidal rating CHEAL ([5]; Rate 0.2500 kg/ha): 9.0
Preemergence herbicidal rating AMBEL ([6]; Rate 0.0620 kg/ha): 9.0
Preemergence herbicidal rating AMBEL ([6]; Rate 0.1250 kg/ha): 9.0
Preemergence herbicidal rating AMBEL ([6]; Rate 0.2500 kg/ha): 9.0
ECHCG herbicidal rating ([7]; rate 0.0320 kg/ha): 2.0
ECHCG herbicidal rating ([7]; rate 0.0620 kg/ha): 3.0
herbicidal rating, SAGPY ([8]; rate 0.0080 kg/ha): 0.0
herbicidal rating, SAGPY ([8]; rate 0.0320 kg/ha): 1.0
herbicidal rating, SAGPY ([8]; rate 0.1250 kg/ha): 9.0
Preemergence herbicidal rating TRZAWR ([9]; Rate 0.0620 kg/ha): 5.0
Preemergence herbicidal rating TRZAWR ([9]; Rate 0.1250 kg/ha): 5.0
Preemergence herbicidal rating TRZAWR ([9]; Rate 0.2500 kg/ha): 6.0
herbicidal rating, CYPIR (CYPIR (Cyperus iria); rate 0.0080 kg/ha): 0.0
herbicidal rating, CYPIR (CYPIR (Cyperus iria); rate 0.0320 kg/ha): 9.0
herbicidal rating, CYPIR (CYPIR (Cyperus iria); rate 0.1250 kg/ha): 9.0
Preemergence herbicidal rating GLXMAW ([10]; Rate 0.0620 kg/ha): 2.5
Preemergence herbicidal rating GLXMAW ([10]; Rate 0.1250 kg/ha): 6.0
Preemergence herbicidal rating GLXMAW ([10]; Rate 0.2500 kg/ha): 5.0
Preemergence herbicidal rating ZEAMX (ZEAMX (Corn, Field) [11]; Rate 0.0620 kg/ha): 3.0
Preemergence herbicidal rating ZEAMX (ZEAMX (Corn, Field) [11]; Rate 0.1250 kg/ha): 3.5
Preemergence herbicidal rating ZEAMX (ZEAMX (Corn, Field) [11]; Rate 0.2500 kg/ha): 6.0
CASOB herbicidal rating ([12]; rate 0.0320 kg/ha): 9.0
CASOB herbicidal rating ([12]; rate 0.0620 kg/ha): 6.0
CHEAL herbicidal rating ([13]; rate 0.0320 kg/ha): 9.0
CHEAL herbicidal rating ([13]; rate 0.0620 kg/ha): 9.0
AMBEL herbicidal rating ([14]; rate 0.0320 kg/ha): 9.0
AMBEL herbicidal rating ([14]; rate 0.0620 kg/ha): 9.0
Preemergence herbicidal rating GALAP (GALAP (Galium aparine) [15]; Rate 0.0620 kg/ha): 7.0
Preemergence herbicidal rating GALAP (GALAP (Galium aparine) [15]; Rate 0.1250 kg/ha): 7.0
Preemergence herbicidal rating GALAP (GALAP (Galium aparine) [15]; Rate 0.2500 kg/ha): 7.0
GALAP herbicidal rating (GALAP (Galium aparine) [16]; rate 0.0320 kg/ha): 4.0
GALAP herbicidal rating (GALAP (Galium aparine) [16]; rate 0.0620 kg/ha): 7.0
IPOHE herbicidal rating ([17]; rate 0.0320 kg/ha): 9.0
IPOHE herbicidal rating ([17]; rate 0.0620 kg/ha): 9.0
Preemergence herbicidal rating IPOHE ([18]; Rate 0.0620 kg/ha): 2.0
Preemergence herbicidal rating IPOHE ([18]; Rate 0.1250 kg/ha): 5.0
Preemergence herbicidal rating IPOHE ([18]; Rate 0.2500 kg/ha): 6.0
GLXMAW herbicidal rating ([19]; rate 0.0320 kg/ha): 5.0
GLXMAW herbicidal rating ([19]; rate 0.0620 kg/ha): 5.5
Preemergence herbicidal rating ORYSAT (ORYSAT (Rice, Tebonnet); Rate 0.0620 kg/ha): 2.0
Preemergence herbicidal rating ORYSAT (ORYSAT (Rice, Tebonnet); Rate 0.1250 kg/ha): 2.5
Preemergence herbicidal rating ORYSAT (ORYSAT (Rice, Tebonnet); Rate 0.2500 kg/ha): 3.0
